Where two headings read alike, the source gives them in different places.
Legend:
A549 cells = assay: In vitro cytotoxicity assay (MTT), A549; details: Homo sapiens, A549, 48 h; for viability at 10 µM: read-out: percentage of cell viability, A549
Experimental: (§1) The selected cell lines include A549, a lung cancer cell line that is characterized by its high expression of EGFR; SKOV-3, an ovarian cancer cell line, selected for its overexpression of both EGFR and HER2; and the breast cancer cell line (SKBR-3), characterized by HER2 overexpression.
(§2) Cells were passaged regularly at around 80% confluency using […] and maintained in 75 cm^2 flasks at 37 °C in a humidified atmosphere containing 5% CO2.
(§3) Approximately 10 × 10^3 cells were seeded per well of the 96-well plates using drug-free media and incubated for 24 h. […] After 48 h of drug exposure, the supernatant was aspirated, and the cells were washed with 100 μL of PBS. The MTT assay was performed by creating a stock solution of MTT at a concentration of 5 mg/mL in PBS. From this stock, a solution of MTT in the cell culture media was prepared to achieve a final concentration of 0.5 mg/mL. […] The MTT solution was thereafter removed, and the generated formazan crystals were dissolved by adding 100 μL of propanol/DMSO (50:50) per well. Absorbance was measured at 570 nm, and IC50 values for each compound were calculated by comparison against negative untreated controls.

SKOV-3 cells = assay: In vitro cytotoxicity assay (MTT), SKOV-3; format: cell-based, human; details: Homo sapiens, 48 h, MTT; for viability at 10 µM: SK-OV-3, read-out: percentage of cell viability, SKOV-3; for IC50: SK-OV-3, 48 h, mean ± SD, three experiments
Experimental: as §1, §2, §3

A2780 cells = assay: In vitro cytotoxicity assay (MTT), A2780; format: cell-based; details: Homo sapiens, 48 h, read-out: percentage of cell viability, A2780
SKBR-3 cells = assay: In vitro cytotoxicity assay (MTT), SKBR-3; format: cell-based, human; details: Homo sapiens, SK-BR-3, 48 h, MTT, 48 h; mean ± SD, three experiments
Experimental: as §1, §2, §3

[1] = In vitro cytotoxicity assay (MTT), normal cell line MRC-5; format: cell-based; details: MRC-5 normal embryonic lung cells, normal human embryonic lung cell line, mean ± SD
Experimental: as §2, §3

[2] = read-out: Cytotoxicity (IC50), A549, MTT, 48 h, mean ± SD, three experiments

Structure (SMILES)	viability at 10 µM (A549 cells) [%]	viability at 10 µM (SKOV-3 cells) [%]	further results
O=C(N/N=C/c1ccccc1)c1ccc(Nc2ncnc3nc[nH]c23)cc1 [6a, (E)-4-((7H-Purin-6-yl)amino)-N′-benzylidenebenzohydrazide]	63	85	–
O=C(N/N=C/c1ccccc1)c1ccc(Nc2ncnc3c2ncn3C2CCCC2)cc1 [6b, (E)-N′-benzylidene-4-((9-cyclopentyl-9H-purin-6-yl)amino)benzohydrazide]	50	60	viability at 10 µM (A2780 cells): 52%
N#Cc1ccc(/C=N/NC(=O)c2ccc(Nc3ncnc4nc[nH]c34)cc2)cc1 [7a, (E)-4-((7H-Purin-6-yl)amino)-N′-(4-cyanobenzylidene)benzohydrazide]	50	58	–
COc1cccc(/C=N/NC(=O)c2ccc(Nc3ncnc4nc[nH]c34)cc2)c1 [12a, (E)-4-((7H-Purin-6-yl)amino)-N′-(3-methoxybenzylidene)benzohydrazide]	75	–	–
COc1ccc(/C=N/NC(=O)c2ccc(Nc3ncnc4nc[nH]c34)cc2)cc1 [13a, (E)-4-((7H-Purin-6-yl)amino)-N′-(4-methoxybenzylidene)benzohydrazide]	86	–	–
O=C(N/N=C/c1ccc([N+](=O)[O-])cc1)c1ccc(Nc2ncnc3nc[nH]c23)cc1 [15a, (E)-4-((7H-Purin-6-yl)amino)-N′-(4-nitrobenzylidene)benzohydrazide]	49	44	–
O=C(N/N=C/c1cccc(C(F)(F)F)c1)c1ccc(Nc2ncnc3nc[nH]c23)cc1 [16a, (E)-4-((7H-Purin-6-yl)amino)-N′-(3-(trifluoromethyl)benzylidene)benzohydrazide]	68	69	–
O=C(N/N=C/c1ccc(F)c(C(F)(F)F)c1)c1ccc(Nc2ncnc3nc[nH]c23)cc1 [17a, (E)-4-((7H-Purin-6-yl)amino)-N′-(4-fluoro-3-(trifluoromethyl)benzylidene) benzohydrazide]	59	63	–
O=C(N/N=C/c1cccc(-c2ccccc2)c1)c1ccc(Nc2ncnc3c2ncn3C2CCCC2)cc1 [19b, (E)-N′-((1,1′-biphenyl)-3-ylmethylene)-4-((9-cyclopentyl-9H-purin-6-yl)amino)benzohydrazide]	–	–	IC50 (A549 cells; [2]): 1.84 ± 0.082 µM; IC50 (SKOV-3 cells): 15.6 ± 1.48 µM; IC50 (SKBR-3 cells): 3.2 ± 0.899 µM
O=C(N/N=C/c1cccc2ccccc12)c1ccc(Nc2ncnc3nc[nH]c23)cc1 [23a, (E)-4-((7H-Purin-6-yl)amino)-N′-(naphthalen-1-ylmethylene) benzohydrazide]	74	92	–
C#Cc1cccc(Nc2ncnc3cc(OCCOC)c(OCCOC)cc23)c1 [Erlotinib, erlotinib, reference compound]	48	44	IC50 (A549 cells; read-out: Cytotoxicity (IC50), A549): 2.42 ± 0.784 µM; IC50 (SKOV-3 cells): 5.18 ± 1.2 µM; viability at 10 µM (A2780 cells): 39%; IC50 (SKBR-3 cells): 5.12 ± 0.879 µM; IC50 at 48 h [1]: 19.36 ± 0.138 µM
CS(=O)(=O)CCNCc1ccc(-c2ccc3ncnc(Nc4ccc(OCc5cccc(F)c5)c(Cl)c4)c3c2)o1 [Lapatinib, lapatinib, reference compound]	–	–	IC50 (A549 cells; [2]): 11.6 ± 0.249 µM; IC50 (SKOV-3 cells): 16.9 ± 2.57 µM; IC50 (SKBR-3 cells): 8.54 ± 0.64 µM; IC50 at 48 h [1]: 43.94 ± 0.42 µM

From PMC12299904, “Purine–Hydrazone Scaffolds as Potential Dual EGFR/HER2 Inhibitors” (Pharmaceuticals, 2025)
